# Test results taken from ChEMBL document CHEMBL5226326, “Discovery of 1-Benzoyl 4-Phenoxypiperidines as Small-Molecule Inhibitors of the β-Catenin/B-Cell Lymphoma 9 Protein-Protein Interaction” (J Med Chem, 2021).
# Tests used:
# [1] = target: T1, beta-catenin-B-cell lymphoma 9 protein complex (Homo sapiens, UniProt P35222); experiment: Inhibition of full length beta-catenin (1 to 781 residues) (unknown origin) expressed in Escherichia coli BL21 (DE3)/N-terminal biotinylated human BCL9 HD2 (350 to 375 residues) protein-protein interaction assessed as inhibition constant incubated for 1 hr by Alphascreen assay
# T1 sequence (P35222 whole entry): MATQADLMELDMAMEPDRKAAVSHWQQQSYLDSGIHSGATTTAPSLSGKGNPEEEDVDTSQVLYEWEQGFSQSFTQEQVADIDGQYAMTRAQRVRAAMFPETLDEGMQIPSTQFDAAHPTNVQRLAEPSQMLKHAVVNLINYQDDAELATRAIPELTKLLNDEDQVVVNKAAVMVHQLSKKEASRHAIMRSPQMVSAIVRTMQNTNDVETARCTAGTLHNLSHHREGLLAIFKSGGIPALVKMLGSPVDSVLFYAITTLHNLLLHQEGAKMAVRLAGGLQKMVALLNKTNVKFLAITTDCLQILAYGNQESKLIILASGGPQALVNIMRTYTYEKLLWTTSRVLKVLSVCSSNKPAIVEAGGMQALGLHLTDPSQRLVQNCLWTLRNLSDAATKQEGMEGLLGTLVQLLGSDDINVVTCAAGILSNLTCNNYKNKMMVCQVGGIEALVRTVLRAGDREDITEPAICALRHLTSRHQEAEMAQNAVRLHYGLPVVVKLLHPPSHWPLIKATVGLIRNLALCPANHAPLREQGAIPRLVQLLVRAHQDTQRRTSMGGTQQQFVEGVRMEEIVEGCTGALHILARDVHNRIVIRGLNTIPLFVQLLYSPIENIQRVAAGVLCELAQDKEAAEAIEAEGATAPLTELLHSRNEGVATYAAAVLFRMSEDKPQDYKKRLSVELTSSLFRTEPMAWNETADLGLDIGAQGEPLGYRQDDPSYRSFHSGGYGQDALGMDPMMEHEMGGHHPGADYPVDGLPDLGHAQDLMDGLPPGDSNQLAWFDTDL
# T1 sequence (O00512 whole entry): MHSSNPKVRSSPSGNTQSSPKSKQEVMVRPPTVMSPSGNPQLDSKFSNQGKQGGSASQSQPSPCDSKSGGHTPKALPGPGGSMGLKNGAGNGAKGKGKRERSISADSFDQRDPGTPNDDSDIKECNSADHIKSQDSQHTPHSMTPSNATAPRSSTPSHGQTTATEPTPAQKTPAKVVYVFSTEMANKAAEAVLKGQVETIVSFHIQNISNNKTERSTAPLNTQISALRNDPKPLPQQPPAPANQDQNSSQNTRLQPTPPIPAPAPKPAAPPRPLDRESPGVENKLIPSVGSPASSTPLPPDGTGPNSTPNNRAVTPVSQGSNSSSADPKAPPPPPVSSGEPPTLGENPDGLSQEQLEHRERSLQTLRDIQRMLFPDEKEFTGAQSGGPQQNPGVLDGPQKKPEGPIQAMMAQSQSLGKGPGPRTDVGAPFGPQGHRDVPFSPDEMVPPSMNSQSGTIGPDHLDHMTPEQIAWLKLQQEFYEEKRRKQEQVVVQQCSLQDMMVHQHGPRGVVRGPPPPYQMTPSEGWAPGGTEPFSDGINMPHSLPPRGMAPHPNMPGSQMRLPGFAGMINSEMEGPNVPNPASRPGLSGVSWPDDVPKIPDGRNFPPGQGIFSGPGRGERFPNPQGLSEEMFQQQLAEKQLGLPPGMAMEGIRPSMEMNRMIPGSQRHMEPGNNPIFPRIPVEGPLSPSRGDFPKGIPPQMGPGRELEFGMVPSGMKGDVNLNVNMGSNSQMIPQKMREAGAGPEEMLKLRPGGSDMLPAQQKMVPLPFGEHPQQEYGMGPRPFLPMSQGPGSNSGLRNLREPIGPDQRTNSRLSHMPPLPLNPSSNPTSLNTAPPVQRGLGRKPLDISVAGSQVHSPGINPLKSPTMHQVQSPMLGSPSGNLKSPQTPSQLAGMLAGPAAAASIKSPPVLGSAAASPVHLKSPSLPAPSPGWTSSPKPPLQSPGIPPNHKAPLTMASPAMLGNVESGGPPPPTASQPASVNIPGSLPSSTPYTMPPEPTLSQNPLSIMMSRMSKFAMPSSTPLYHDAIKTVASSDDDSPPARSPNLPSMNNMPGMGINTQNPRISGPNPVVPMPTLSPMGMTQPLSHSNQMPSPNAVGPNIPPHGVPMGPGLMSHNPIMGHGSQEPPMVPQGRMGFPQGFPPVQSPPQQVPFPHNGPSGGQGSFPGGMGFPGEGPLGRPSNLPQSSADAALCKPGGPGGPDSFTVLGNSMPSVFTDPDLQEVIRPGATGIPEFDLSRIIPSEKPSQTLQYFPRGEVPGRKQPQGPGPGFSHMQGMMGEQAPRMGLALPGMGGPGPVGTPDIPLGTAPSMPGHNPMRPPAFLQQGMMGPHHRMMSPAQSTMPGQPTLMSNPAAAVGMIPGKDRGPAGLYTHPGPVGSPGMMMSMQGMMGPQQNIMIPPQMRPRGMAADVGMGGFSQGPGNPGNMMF
# [2] = target: T1, beta-catenin-B-cell lymphoma 9 protein complex; experiment: Inhibition of full length beta-catenin (1 to 781 residues) (unknown origin) expressed in Escherichia coli BL21 (DE3)/N-terminal biotinylated human BCL9 HD2 (350 to 375 residues) protein-protein interaction incubated for 1 hr by Alphascreen assay
Ki [1] [µM],IC50 [2] [µM],Compound
> 84,> 100,O=C(c1ccc(O[C@H]2CCNC2)c(C2CCCCC2)c1)N1CCC(Oc2cc(F)cc(N3CCNCC3=O)c2)CC1
34,37,CC(O)C(=O)N1CCC(c2cc(C(=O)N3CCC(Oc4cc(F)cc(N5CCNCC5)c4)CC3)ccc2O[C@H]2CCNC2)CC1 (stereo partly drawn)
50,≥ 60,O=C(c1cc(F)cc(N2CCNCC2)c1)N1CCN(C(=O)c2ccc(O[C@@H]3CCNC3)c(C3CCCCC3)c2)CC1
31,35,CC(C)C(=O)N1CCC(c2cc(C(=O)N3CCC(Oc4cc(F)cc(N5CCNCC5)c4)CC3)ccc2O[C@H]2CCNC2)CC1
66,73,NCCCC(=O)Nc1cc(F)cc(OC2CCN(C(=O)c3ccc(O[C@H]4CCNC4)c(C4CCCCC4)c3)CC2)c1
3.6,4.3,CC(C)(C)C1CCC(c2cc(C(=O)N3CCC(Oc4cc(N5CCNCC5)cc(C(F)(F)F)c4)CC3)ccc2O[C@H]2CCNC2)CC1 (stereo partly drawn)
72,80,CN(C)Cc1cn(Cc2cc(F)cc(OC3CCN(C(=O)c4ccc(O[C@H]5CCNC5)c(C5CCCCC5)c4)CC3)c2)nn1
> 84,> 100,O=C(c1ccc(O[C@H]2CCNC2)c(C2CCCCC2)c1)N1CCC(Oc2cc(F)cc(N3C[C@H]4CNC[C@H]4C3)c2)CC1
62,69,NCCC(=O)Nc1cc(F)cc(OC2CCN(C(=O)c3ccc(O[C@H]4CCNC4)c(C4CCCCC4)c3)CC2)c1
> 84,> 100,O=C(c1ccc(O[C@H]2CCNC2)c(C2CCCCC2)c1)N1CCC(Oc2cc(F)cc(N3CCC4(CC3)CNC4)c2)CC1
> 84,> 100,O=C(c1ccc(OC2CCNCC2)c(C2CCCCC2)c1)N1CCC(Oc2cc(F)cc(N3CCNCC3)c2)CC1
> 84,> 100,CC(C)(C)C1CCC(c2cc(C(=O)N3CCC(Oc4cc(N5CCNCC5)ccc4C(=O)O)CC3)ccc2O[C@H]2CCNC2)CC1 (stereo partly drawn)
> 84,> 100,O=C(c1ccc(O[C@H]2CCNC2)c(C2CCCCC2)c1)N1CCC(Oc2cc(F)cc(N3CC4(CCNCC4)C3)c2)CC1
35,39,O=C(c1ccc(O[C@H]2CCNC2)c(C2CCN(C(=O)C3CC3)CC2)c1)N1CCC(Oc2cc(F)cc(N3CCNCC3)c2)CC1
> 84,> 100,NCCC(=O)NCc1cc(F)cc(OC2CCN(C(=O)c3ccc(O[C@H]4CCNC4)c(C4CCCCC4)c3)CC2)c1
7.9,8.8,O=C(c1ccc(O[C@H]2CCNC2)c(-c2ccc3[nH]ncc3c2)c1)N1CCC(Oc2cc(F)cc(N3CCNCC3)c2)CC1
43,48,O=C(c1ccc(O[C@H]2CCNC2)c(-c2ccc3nc[nH]c3c2)c1)N1CCC(Oc2cc(F)cc(N3CCNCC3)c2)CC1
52,64,O=C(c1ccc(O[C@@H]2CCNC2)c(C2CCCCC2)c1)N1CCC(Oc2cc(F)cc(N3CCNCC3)c2)CC1
46,57,O=C(c1ccc(O[C@H]2CCNC2)c(C2CCCCC2)c1)N1CCC(Oc2cc(F)cc(N3CCNCC3)c2)CC1
16,18,O=C(c1ccc(O[C@H]2CCNC2)c(-c2ccc(C(F)(F)F)cc2)c1)N1CCC(Oc2cc(F)cc(N3CCNCC3)c2)CC1

Ki [1] [µM],IC50 [2] [µM],Compound
4,4.5,O=C(c1ccc(O[C@H]2CCNC2)c(-c2ccc3ccsc3c2)c1)N1CCC(Oc2cc(F)cc(N3CCNCC3)c2)CC1
> 84,> 100,NCc1cn(Cc2cc(F)cc(OC3CCN(C(=O)c4ccc(O[C@H]5CCNC5)c(C5CCCCC5)c4)CC3)c2)nn1
> 84,> 100,CC(C)(C)C(=O)N1CCC(c2cc(C(=O)N3CCC(Oc4cc(F)cc(N5CCNCC5)c4)CC3)ccc2O[C@H]2CCNC2)CC1
10,11,O=C(c1ccc(O[C@H]2CCNC2)c(-c2ccc3cn[nH]c3c2)c1)N1CCC(Oc2cc(F)cc(N3CCNCC3)c2)CC1
10,11,CC(C)(C)c1ccc(-c2cc(C(=O)N3CCC(Oc4cc(F)cc(N5CCNCC5)c4)CC3)ccc2O[C@H]2CCNC2)cc1
42,47,O=C(c1ccc(O[C@H]2CCNC2)c(-c2ccccc2)c1)N1CCC(Oc2cc(F)cc(N3CCNCC3)c2)CC1
> 84,> 100,CC(C)(CN)C(=O)NCc1cc(F)cc(OC2CCN(C(=O)c3ccc(O[C@H]4CCNC4)c(C4CCCCC4)c3)CC2)c1
> 84,> 100,O=C(c1ccc(O[C@H]2CCNC2)c(C2CCOCC2)c1)N1CCC(Oc2cc(F)cc(N3CCNCC3)c2)CC1
4.1,4.6,O=C(c1ccc(O[C@H]2CCNC2)c(-c2ccc3ccccc3c2)c1)N1CCC(Oc2cc(F)cc(N3CCNCC3)c2)CC1
2.2,2.7,CC(C)(C)C1CCC(c2cc(C(=O)N3CCC(Oc4cc(N5CCNCC5)ccc4Cl)CC3)ccc2O[C@H]2CCNC2)CC1 (mixture of isomers)
3.1,3.7,CC(C)(C)C1CCC(c2cc(C(=O)N3CCC(Oc4cc(N5CCNCC5)cc(F)c4F)CC3)ccc2O[C@H]2CCNC2)CC1 (mixture of isomers)
3.6,4.3,CC(C)(C)C1CCC(c2cc(C(=O)N3CCC(Oc4cc(Cl)cc(N5CCNCC5)c4)CC3)ccc2O[C@H]2CCNC2)CC1 (mixture of isomers)
5.6,6.7,CC(C)(C)C1CCC(c2cc(C(=O)N3CCC(Oc4ccc(F)c(N5CCNCC5)c4)CC3)ccc2O[C@H]2CCNC2)CC1 (mixture of isomers)
4.4,5.2,CC(C)(C)C1CCC(c2cc(C(=O)N3CCC(Oc4cc(C#N)cc(N5CCNCC5)c4)CC3)ccc2O[C@H]2CCNC2)CC1 (mixture of isomers)
13,20,O=C(c1ccc(O[C@H]2CCNC2)c(C2CCC(C(F)(F)F)CC2)c1)N1CCC(Oc2cc(F)cc(N3CCNCC3)c2)CC1 (mixture of isomers)
5,6.2,CC(C)(C)C1CCC(c2cc(C(=O)N3CCC(Oc4cc(N5CCNCC5)ccc4F)CC3)ccc2O[C@H]2CCNC2)CC1 (mixture of isomers)
14,17,COC(=O)c1ccc(N2CCNCC2)cc1OC1CCN(C(=O)c2ccc(O[C@H]3CCNC3)c(C3CCC(C(C)(C)C)CC3)c2)CC1 (mixture of isomers)
17,20,CC(C)(C)C1CCC(c2cc(C(=O)N3CCC(Oc4cccc(N5CCNCC5)c4)CC3)ccc2O[C@H]2CCNC2)CC1 (mixture of isomers)
3.2,3.6,CC(C)(C)C1CCC(c2cc(C(=O)N3CCC(Oc4cc(F)cc(N5CCNCC5)c4)CC3)ccc2O[C@H]2CCNC2)CC1 (mixture of isomers)
